Assay results taken from patent publication US10160724B2, “Tetrahydropyridine derivatives and their use as antibacterial agents” (Dong-A St Co., Ltd., priority 2016, dated 2018).
Converted amounts (≈) assume the structure as drawn. Like-named read-outs stand apart in the source and are kept apart here.

Experiments:
Assay in all cases: In vitro antibiotic activity, agar dilution method (Mueller-Hinton agar, NCCLS)
Type in all cases: cell-based
E. coli ATCC 25922 = details: Escherichia coli
Method: (§1) To measure the antibiotic activity of the compounds prepared by Examples, antibiotic activity test in vitro was performed by agar dilution method using Mueller-Hinton agar according to the NCCLS (National Committee for Clinical Laboratory Standards. 2000. Methods for dilution antimicrobial susceptibility tests for bacteria that grow aerobiocally. Approved standard, NCCLS document M7-M5, 5th ed, vol 20, no 2. National Committee for Clinical Laboratory Standards, Wayne, Pa.). The test strain was Escherichia coli (ATCC 25922), Klebsiella pneumonia (ATCC 29665) and Pseudomonas aeriginosa (PAO1).

K. pneumoniae ATCC 29665 = details: Klebsiella pneumoniae
Method: as §1

P. aeruginosa PAO1 = details: Pseudomonas aeruginosa
Method: as §1

[1] = ATCC25922, agar dilution, Mueller-Hinton agar, read-out: MIC for E. coli ATCC 25922
[2] = ATCC29665, agar dilution, Mueller-Hinton agar, read-out: MIC for K. pneumoniae ATCC 29665
[3] = PAO1, agar dilution, Mueller-Hinton agar, read-out: MIC for P. aeruginosa PAO1

Q: How did the MIC (E. coli ATCC 25922; [1]) turn out when `CC(CCN1CC=C(c2ccc(-c3ccc(O)cc3)cc2)CC1)(C(=O)NO)S(C)(=O)=O` (stereo not drawn) [Example 59, N-hydroxy-4-(4-(4′-hydroxy-[1,1′-biphenyl]-4-yl)-3,6-dihydropyridin-1(2H)-yl)-2-methyl-2-(methylsulfonyl)butanamide] was run?
A: Its MIC is under 1 µg/mL.

Q: And the MIC (K. pneumoniae ATCC 29665; [2])?
A: The MIC was 8 to 16 µg/mL (≈ 18 to 36 µM).

Q: And the MIC (P. aeruginosa PAO1; [3])?
A: Its MIC is 8 to 16 µg/mL (≈ 18 to 36 µM).

Q: With `CC(CCN1CC=C(c2ccc(C#CCCCO)cc2)CC1)(C(=O)NO)S(C)(=O)=O` (stereo not drawn) [Example 18, N-hydroxy-4-(4-(4-(5-hydroxypent-1-yn-1-yl)phenyl)-3,6-dihydropyridin-1(2H)-yl)-2-methyl-2-(methylsulfonyl)butanamide] as the molecule, how does the MIC (E. coli ATCC 25922; [1]) read?
A: The MIC was under 1 µg/mL.

Q: What about the MIC (K. pneumoniae ATCC 29665; [2]) of the same molecule?
A: Its MIC is 1 to 8 µg/mL (≈ 2.3 to 18.4 µM).

Q: What about the MIC (P. aeruginosa PAO1; [3]) of the same molecule?
A: The MIC was 1 to 8 µg/mL (≈ 2.3 to 18.4 µM).

Q: Which MIC (E. coli ATCC 25922; [1]) does the source give for `COCC#Cc1ccc(C2=CCN(CCC(C)(C(=O)NO)S(C)(=O)=O)CC2)cc1` (stereo not drawn) [Example 23, N-hydroxy-4-(4-(4-(3-methoxyprop-1-yn-1-yl)phenyl)-3,6-dihydropyridin-1(2H)-yl)-2-methyl-2-(methylsulfonyl)butanamide] here?
A: The MIC was under 1 µg/mL.

Q: What about the MIC (K. pneumoniae ATCC 29665; [2]) of the same molecule?
A: The MIC was 1 to 8 µg/mL (≈ 2.38 to 19 µM).

Q: And the MIC (P. aeruginosa PAO1; [3])?
A: Its MIC is 1 to 8 µg/mL (≈ 2.38 to 19 µM).

Q: What does the source list for `CC(CCN1CC=C(c2ccc(C#Cc3cccs3)cc2)CC1)(C(=O)NO)S(C)(=O)=O` (stereo not drawn) [Example 34, N-hydroxy-2-methyl-2-(methylsulfonyl)-4-(4-(4-(thiophen-2-ylethynyl)phenyl)-3,6-dihydropyridin-1(2H)-yl)butanamide]?
A: MIC (E. coli ATCC 25922; [1]): < 1 µg/mL; MIC (K. pneumoniae ATCC 29665; [2]): 1 to 8 µg/mL (≈ 2.18 to 17.4 µM); MIC (P. aeruginosa PAO1; [3]): 1 to 8 µg/mL (≈ 2.18 to 17.4 µM)

Q: For `CN(C)c1ccc(C#Cc2ccc(C3=CCN(CCC(C)(C(=O)NO)S(C)(=O)=O)CC3)cc2)cc1` (stereo not drawn) [Example 1, 4-(4-(4-((4-(dimethylamino)phenyl)ethynyl)phenyl)-3,6-dihydropyridin-1(2H)-yl)-N-hydroxy-2-methyl-2-(methylsulfonyl)butanamide], which MIC (E. coli ATCC 25922; ATCC25922, read-out: MIC for E. coli ATCC 25922) is on record?
A: Its MIC is over 16 µg/mL.

Q: What about the MIC (K. pneumoniae ATCC 29665; ATCC29665, read-out: MIC for K. pneumoniae ATCC 29665) of the same molecule?
A: The MIC was over 16 µg/mL.

Q: And the MIC (P. aeruginosa PAO1; PAO1, read-out: MIC for P. aeruginosa PAO1)?
A: Its MIC is over 16 µg/mL.

Q: `CN(C)CC#Cc1ccc(C2=CCN(CCC(C)(C(=O)NO)S(C)(=O)=O)CC2)c(F)c1` (stereo not drawn) [Example 33, 4-(4-(4-(3-(dimethylamino)prop-1-yn-1-yl)-2-fluorophenyl)-3,6-dihydropyridin-1(2H)-yl)-N-hydroxy-2-methyl-2-(methylsulfonyl)butanamide] was tested. Which MIC (E. coli ATCC 25922; [1]) did it give?
A: Its MIC is 1 to 8 µg/mL (≈ 2.21 to 17.7 µM).

Q: What about the MIC (K. pneumoniae ATCC 29665; [2]) of the same molecule?
A: The MIC was 8 to 16 µg/mL (≈ 17.7 to 35.4 µM).

Q: What about the MIC (P. aeruginosa PAO1; [3]) of the same molecule?
A: The MIC was 1 to 8 µg/mL (≈ 2.21 to 17.7 µM).

Q: Which MIC (E. coli ATCC 25922; [1]) does the source give for `CC(CCN1CC=C(C#Cc2ccncc2)CC1)(C(=O)NO)S(C)(=O)=O` (stereo not drawn) [Example 52, N-hydroxy-2-methyl-2-(methylsulfonyl)-4-(4-(pyridin-4-ylethynyl)-3,6-dihydropyridin-1(2H)-yl)butanamide] here?
A: The MIC was 8 to 16 µg/mL (≈ 21.2 to 42.4 µM).

Q: And the MIC (K. pneumoniae ATCC 29665; [2])?
A: The MIC was over 16 µg/mL.

Q: What about the MIC (P. aeruginosa PAO1; [3]) of the same molecule?
A: Its MIC is over 16 µg/mL.

Q: What does the source list for `COc1ccc(-c2ccc(C3=CCN(CCC(C)(C(=O)NO)S(C)(=O)=O)CC3)cc2)cc1F` (stereo not drawn) [Example 60, 4-(4-(3′-fluoro-4′-methoxy-[1,1′-biphenyl]-4-yl)-3,6-dihydropyridin-1(2H)-yl)-N-hydroxy-2-methyl-2-(methylsulfonyl)butanamide]?
A: MIC (E. coli ATCC 25922; [1]): < 1 µg/mL; MIC (K. pneumoniae ATCC 29665; [2]): 8 to 16 µg/mL (≈ 16.8 to 33.6 µM); MIC (P. aeruginosa PAO1; [3]): > 16 µg/mL

Q: Which MIC (E. coli ATCC 25922; [1]) does the source give for `CCN(CC)CC#Cc1ccc(C2=CCN(CCC(C)(C(=O)NO)S(C)(=O)=O)CC2)cc1` (stereo not drawn) [Example 16, 4-(4-(4-(3-(diethylamino)prop-1-yn-1-yl)phenyl)-3,6-dihydropyridin-1(2H)-yl)-N-hydroxy-2-methyl-2-(methylsulfonyl)butanamide] here?
A: Its MIC is 1 to 8 µg/mL (≈ 2.17 to 17.3 µM).

Q: And the MIC (K. pneumoniae ATCC 29665; [2])?
A: Its MIC is 1 to 8 µg/mL (≈ 2.17 to 17.3 µM).

Q: What about the MIC (P. aeruginosa PAO1; [3]) of the same molecule?
A: The MIC was 1 to 8 µg/mL (≈ 2.17 to 17.3 µM).

Q: For `CC(CCN1CC=C(c2ccc(C#Cc3cccnc3)cc2)CC1)(C(=O)NO)S(C)(=O)=O` (stereo not drawn) [Example 36, N-hydroxy-2-methyl-2-(methylsulfonyl)-4-(4-(4-(pyridin-3-ylethynyl)phenyl)-3,6-dihydropyridin-1(2H)-yl)butanamide], which MIC (E. coli ATCC 25922; [1]) is on record?
A: Its MIC is under 1 µg/mL.

Q: What about the MIC (K. pneumoniae ATCC 29665; [2]) of the same molecule?
A: The MIC was 1 to 8 µg/mL (≈ 2.2 to 17.6 µM).

Q: And the MIC (P. aeruginosa PAO1; [3])?
A: Its MIC is 1 to 8 µg/mL (≈ 2.2 to 17.6 µM).

Q: `CC(CCN1CC=C(C#Cc2ccc(Br)cc2)CC1)(C(=O)NO)S(C)(=O)=O` (stereo not drawn) [Example 53, 4-(4-((4-bromophenyl)ethynyl)-3,6-dihydropyridin-1(2H)-yl)-N-hydroxy-2-methyl-2-(methylsulfonyl)butanamide] was tested. Which MIC (E. coli ATCC 25922; [1]) did it give?
A: The MIC was 1 to 8 µg/mL (≈ 2.2 to 17.6 µM).

Q: And the MIC (K. pneumoniae ATCC 29665; [2])?
A: Its MIC is 1 to 8 µg/mL (≈ 2.2 to 17.6 µM).

Q: What about the MIC (P. aeruginosa PAO1; [3]) of the same molecule?
A: Its MIC is over 16 µg/mL.

Q: Which results are given for `CC(C)CC#Cc1ccc(C2=CCN(CCC(C)(C(=O)NO)S(C)(=O)=O)CC2)cc1` (stereo not drawn) [Example 13, N-hydroxy-2-methyl-4-(4-(4-(4-methylpent-1-yn-1-yl)phenyl)-3,6-dihydropyridin-1(2H)-yl)-2-(methylsulfonyl)butanamide]?
A: MIC (E. coli ATCC 25922; [1]): < 1 µg/mL; MIC (K. pneumoniae ATCC 29665; [2]): 1 to 8 µg/mL (≈ 2.31 to 18.5 µM); MIC (P. aeruginosa PAO1; [3]): 8 to 16 µg/mL (≈ 18.5 to 37 µM)

Q: For `CN(C)CC#CC#Cc1ccc(C2=CCN(CCC(C)(C(=O)NO)S(C)(=O)=O)CC2)cc1` (stereo not drawn) [Example 49, 4-(4-(4-(5-(dimethylamino)penta-1,3-diyn-1-yl)phenyl)-3,6-dihydropyridin-1(2H)-yl)-N-hydroxy-2-methyl-2-(methylsulfonyl)butanamide], which MIC (E. coli ATCC 25922; [1]) is on record?
A: The MIC was under 1 µg/mL.

Q: And the MIC (K. pneumoniae ATCC 29665; [2])?
A: The MIC was 1 to 8 µg/mL (≈ 2.19 to 17.5 µM).

Q: And the MIC (P. aeruginosa PAO1; [3])?
A: The MIC was under 1 µg/mL.
